From PMC6271078 (Molecules, 2014)
Converted amounts (≈) assume the structure as drawn.

Legend:
Aqueous solubility = type: physicochemical
[1] = cited from earlier work

- Times Increased of Aqueous Solubility (Comp. vs. Rapa) (Aqueous solubility; ratio of compound solubility to Rapa solubility): 1
- solubility (Aqueous solubility; water): 2.6 µg/mL (≈ 2.84 µM)
Compound: CO[C@H]1C[C@@H]2CC[C@@H](C)[C@@](O)(O2)C(=O)C(=O)N2CCCC[C@H]2C(=O)O[C@H]([C@H](C)C[C@@H]2CC[C@@H](O)[C@H](OC)C2)CC(=O)[C@H](C)/C=C(\C)[C@@H](O)[C@@H](OC)C(=O)[C@H](C)C[C@H](C)/C=C/C=C/C=C/1C [Rapa, Rapamycin, reference compound]
- oral bioavailability [1]: 10%
